ChEMBL document CHEMBL3991601, “The target landscape of clinical kinase drugs” (Science, 2017)
Calls of active or inactive are those of the source. Rule as the data show it, for most assays here: actives have a measured Kd and inactives only a lower limit.

Key:
[1] = molecular target: Cyclin-dependent kinase 7 (Homo sapiens, UniProt P50613)
[2] = molecular target: T1, Electron transfer flavoprotein subunit beta (Homo sapiens, UniProt P38117)
T1 sequence (P38117 whole entry): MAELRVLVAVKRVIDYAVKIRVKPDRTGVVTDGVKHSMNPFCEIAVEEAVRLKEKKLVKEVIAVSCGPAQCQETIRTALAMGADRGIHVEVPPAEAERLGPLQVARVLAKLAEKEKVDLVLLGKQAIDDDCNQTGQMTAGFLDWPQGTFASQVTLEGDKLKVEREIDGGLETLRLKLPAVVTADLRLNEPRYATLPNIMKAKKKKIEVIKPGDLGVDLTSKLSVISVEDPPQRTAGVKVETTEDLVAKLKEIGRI

[3] = molecular target: Tyrosine-protein kinase Fer (Homo sapiens, UniProt P16591)
[4] = molecular target: T2, Mitogen-activated protein kinase kinase kinase kinase 3 (Homo sapiens, UniProt Q8IVH8)
T2 sequence (Q8IVH8 whole entry): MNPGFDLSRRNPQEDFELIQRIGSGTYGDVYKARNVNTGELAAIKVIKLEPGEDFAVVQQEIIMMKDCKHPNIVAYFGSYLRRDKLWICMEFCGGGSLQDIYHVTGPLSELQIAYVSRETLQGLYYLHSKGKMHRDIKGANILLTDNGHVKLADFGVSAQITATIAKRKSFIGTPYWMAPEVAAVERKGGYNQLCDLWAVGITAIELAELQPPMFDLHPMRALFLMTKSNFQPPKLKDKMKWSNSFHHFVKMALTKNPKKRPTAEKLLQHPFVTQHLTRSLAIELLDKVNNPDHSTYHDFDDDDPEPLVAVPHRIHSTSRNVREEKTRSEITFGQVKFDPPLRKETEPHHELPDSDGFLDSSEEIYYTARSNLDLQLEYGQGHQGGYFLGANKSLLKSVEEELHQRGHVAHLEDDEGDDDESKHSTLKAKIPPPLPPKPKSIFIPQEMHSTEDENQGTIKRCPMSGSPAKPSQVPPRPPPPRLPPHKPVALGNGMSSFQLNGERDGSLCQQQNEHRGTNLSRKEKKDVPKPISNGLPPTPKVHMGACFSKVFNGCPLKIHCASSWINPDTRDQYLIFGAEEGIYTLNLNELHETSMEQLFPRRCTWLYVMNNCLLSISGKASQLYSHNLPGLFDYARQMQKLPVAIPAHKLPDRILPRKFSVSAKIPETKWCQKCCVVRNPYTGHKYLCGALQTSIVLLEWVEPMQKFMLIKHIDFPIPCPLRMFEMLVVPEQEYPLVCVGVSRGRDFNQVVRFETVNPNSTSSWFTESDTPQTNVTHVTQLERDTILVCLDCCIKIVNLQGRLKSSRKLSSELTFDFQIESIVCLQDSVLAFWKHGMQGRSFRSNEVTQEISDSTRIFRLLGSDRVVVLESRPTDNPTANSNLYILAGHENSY

[5] = molecular target: Mitogen-activated protein kinase kinase kinase kinase 4 (Homo sapiens, UniProt O95819)
[6] = molecular target: T3, Serine/threonine-protein kinase Nek1 (Homo sapiens, UniProt Q96PY6)
T3 sequence (Q96PY6 whole entry): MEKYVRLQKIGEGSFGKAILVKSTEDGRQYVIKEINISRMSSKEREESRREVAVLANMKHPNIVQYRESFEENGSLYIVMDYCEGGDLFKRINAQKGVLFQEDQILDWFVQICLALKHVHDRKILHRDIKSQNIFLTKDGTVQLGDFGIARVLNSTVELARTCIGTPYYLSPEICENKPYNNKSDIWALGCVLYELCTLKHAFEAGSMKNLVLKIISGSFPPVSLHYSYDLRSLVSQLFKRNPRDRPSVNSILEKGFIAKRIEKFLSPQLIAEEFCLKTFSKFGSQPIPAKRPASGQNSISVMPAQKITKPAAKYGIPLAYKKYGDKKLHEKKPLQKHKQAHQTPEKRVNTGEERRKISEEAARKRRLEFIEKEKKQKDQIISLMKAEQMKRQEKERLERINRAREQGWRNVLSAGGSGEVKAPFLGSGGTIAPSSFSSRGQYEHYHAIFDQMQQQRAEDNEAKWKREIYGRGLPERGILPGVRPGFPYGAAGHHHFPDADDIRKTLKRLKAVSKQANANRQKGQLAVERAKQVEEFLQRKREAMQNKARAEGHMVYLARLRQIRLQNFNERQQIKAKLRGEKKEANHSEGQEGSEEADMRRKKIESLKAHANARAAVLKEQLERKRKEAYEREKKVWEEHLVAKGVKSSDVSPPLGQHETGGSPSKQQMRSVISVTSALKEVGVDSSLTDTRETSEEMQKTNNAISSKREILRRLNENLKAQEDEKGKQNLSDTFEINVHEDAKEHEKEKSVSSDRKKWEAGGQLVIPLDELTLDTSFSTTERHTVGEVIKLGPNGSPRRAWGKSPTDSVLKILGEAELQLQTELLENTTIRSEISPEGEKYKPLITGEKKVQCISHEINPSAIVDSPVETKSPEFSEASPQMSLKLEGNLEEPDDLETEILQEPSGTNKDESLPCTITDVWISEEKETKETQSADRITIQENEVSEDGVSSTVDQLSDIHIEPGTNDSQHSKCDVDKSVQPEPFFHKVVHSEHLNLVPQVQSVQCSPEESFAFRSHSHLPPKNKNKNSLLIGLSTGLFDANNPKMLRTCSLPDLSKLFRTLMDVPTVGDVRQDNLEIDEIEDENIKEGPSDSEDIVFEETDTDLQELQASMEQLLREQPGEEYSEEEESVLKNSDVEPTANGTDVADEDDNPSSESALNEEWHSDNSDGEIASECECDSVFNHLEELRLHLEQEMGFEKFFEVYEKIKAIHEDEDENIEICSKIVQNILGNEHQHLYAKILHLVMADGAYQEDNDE

[7] = molecular target: T4, Phosphorylase b kinase gamma catalytic chain, liver/testis isoform (Homo sapiens, UniProt P15735)
T4 sequence (P15735 whole entry): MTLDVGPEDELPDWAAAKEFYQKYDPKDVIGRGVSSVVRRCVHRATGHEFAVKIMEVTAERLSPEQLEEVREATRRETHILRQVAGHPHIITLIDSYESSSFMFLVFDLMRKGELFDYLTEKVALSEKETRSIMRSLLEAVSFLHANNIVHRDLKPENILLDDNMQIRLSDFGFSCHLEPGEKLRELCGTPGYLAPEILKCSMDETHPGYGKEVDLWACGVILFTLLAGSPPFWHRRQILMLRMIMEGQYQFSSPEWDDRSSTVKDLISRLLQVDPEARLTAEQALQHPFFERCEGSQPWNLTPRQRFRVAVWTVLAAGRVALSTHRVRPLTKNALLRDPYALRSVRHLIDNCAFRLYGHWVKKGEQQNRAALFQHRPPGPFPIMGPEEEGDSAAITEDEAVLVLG

[8] = molecular target: Serine/threonine-protein kinase 10 (Homo sapiens, UniProt O94804)
Also: in the data inactive means no Kd found up to 30 µM.

Sequence of Tyrosine-protein kinase Fer (P16591 whole entry): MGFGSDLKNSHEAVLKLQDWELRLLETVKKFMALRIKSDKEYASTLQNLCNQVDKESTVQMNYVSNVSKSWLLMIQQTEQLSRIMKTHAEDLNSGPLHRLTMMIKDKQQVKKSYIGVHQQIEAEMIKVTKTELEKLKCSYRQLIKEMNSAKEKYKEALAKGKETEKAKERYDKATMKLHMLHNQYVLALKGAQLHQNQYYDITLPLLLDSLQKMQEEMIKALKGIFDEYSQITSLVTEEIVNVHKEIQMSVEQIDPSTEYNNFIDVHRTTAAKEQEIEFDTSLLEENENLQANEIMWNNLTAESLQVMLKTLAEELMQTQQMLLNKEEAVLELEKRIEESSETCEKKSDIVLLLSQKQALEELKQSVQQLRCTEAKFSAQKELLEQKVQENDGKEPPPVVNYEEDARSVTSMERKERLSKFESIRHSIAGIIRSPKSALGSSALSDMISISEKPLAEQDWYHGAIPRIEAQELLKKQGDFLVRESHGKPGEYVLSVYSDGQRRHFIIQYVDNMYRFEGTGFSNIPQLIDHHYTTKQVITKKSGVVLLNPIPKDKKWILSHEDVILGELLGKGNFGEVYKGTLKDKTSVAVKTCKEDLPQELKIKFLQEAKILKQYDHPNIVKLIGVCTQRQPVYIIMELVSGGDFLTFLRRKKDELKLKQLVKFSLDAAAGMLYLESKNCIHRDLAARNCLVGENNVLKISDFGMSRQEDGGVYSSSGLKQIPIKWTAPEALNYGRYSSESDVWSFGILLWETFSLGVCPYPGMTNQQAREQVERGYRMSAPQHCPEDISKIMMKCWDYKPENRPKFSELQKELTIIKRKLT
Sequence of Serine/threonine-protein kinase 10 (O94804 whole entry): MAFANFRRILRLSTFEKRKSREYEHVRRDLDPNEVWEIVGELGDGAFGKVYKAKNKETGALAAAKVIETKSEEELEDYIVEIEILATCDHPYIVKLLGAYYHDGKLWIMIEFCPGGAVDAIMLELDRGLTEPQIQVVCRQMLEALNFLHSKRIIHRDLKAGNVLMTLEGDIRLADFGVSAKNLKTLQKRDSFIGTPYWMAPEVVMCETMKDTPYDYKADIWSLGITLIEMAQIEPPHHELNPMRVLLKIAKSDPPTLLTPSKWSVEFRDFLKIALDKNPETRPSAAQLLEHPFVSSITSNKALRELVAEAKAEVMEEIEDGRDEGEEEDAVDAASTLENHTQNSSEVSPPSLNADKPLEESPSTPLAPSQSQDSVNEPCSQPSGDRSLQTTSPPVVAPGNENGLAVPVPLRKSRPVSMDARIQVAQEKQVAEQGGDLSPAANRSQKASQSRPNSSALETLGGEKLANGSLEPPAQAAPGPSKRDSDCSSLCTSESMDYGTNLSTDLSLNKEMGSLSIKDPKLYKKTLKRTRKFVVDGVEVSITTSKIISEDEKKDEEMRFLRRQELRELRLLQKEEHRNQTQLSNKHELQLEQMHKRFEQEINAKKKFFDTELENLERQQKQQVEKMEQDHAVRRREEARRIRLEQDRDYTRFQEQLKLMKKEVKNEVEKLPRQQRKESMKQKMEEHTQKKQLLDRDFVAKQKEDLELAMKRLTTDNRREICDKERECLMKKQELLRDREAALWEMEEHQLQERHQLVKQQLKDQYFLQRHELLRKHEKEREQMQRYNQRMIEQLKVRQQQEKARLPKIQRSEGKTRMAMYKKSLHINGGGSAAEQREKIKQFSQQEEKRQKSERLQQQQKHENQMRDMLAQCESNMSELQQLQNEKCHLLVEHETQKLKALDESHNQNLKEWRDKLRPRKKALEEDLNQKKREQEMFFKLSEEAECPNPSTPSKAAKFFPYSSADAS
Sequence of Mitogen-activated protein kinase kinase kinase kinase 4 (O95819 whole entry): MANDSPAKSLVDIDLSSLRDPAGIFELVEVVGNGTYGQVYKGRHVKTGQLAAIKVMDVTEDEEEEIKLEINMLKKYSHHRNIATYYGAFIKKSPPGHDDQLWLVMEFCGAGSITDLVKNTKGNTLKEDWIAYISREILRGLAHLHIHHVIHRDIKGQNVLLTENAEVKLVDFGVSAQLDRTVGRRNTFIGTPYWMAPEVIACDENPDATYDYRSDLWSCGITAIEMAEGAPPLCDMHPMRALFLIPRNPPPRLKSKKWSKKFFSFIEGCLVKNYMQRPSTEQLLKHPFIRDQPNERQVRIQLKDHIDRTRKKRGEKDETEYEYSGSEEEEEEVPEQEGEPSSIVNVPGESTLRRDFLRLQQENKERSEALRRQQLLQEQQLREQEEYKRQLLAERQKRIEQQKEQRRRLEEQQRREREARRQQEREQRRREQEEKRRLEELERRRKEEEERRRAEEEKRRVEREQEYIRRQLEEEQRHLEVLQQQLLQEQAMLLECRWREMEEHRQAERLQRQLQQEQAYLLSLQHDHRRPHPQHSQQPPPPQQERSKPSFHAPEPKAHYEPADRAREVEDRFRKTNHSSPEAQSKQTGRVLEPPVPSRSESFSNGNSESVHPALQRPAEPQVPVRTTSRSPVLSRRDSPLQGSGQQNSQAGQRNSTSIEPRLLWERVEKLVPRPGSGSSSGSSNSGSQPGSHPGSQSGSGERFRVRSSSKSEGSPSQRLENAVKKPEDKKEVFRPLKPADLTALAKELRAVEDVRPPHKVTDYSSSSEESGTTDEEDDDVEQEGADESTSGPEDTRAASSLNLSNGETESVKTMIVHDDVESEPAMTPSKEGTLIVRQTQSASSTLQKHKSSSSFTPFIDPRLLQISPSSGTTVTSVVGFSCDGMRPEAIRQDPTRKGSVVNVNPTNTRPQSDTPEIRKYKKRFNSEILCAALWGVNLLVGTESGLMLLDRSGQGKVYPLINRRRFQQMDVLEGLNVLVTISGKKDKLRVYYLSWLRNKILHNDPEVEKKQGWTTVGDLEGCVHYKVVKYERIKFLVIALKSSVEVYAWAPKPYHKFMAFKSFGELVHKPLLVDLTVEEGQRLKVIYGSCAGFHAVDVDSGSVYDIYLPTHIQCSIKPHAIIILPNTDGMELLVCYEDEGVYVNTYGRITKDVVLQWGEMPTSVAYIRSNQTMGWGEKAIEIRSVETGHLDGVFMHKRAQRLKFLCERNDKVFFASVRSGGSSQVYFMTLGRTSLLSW
Sequence of Cyclin-dependent kinase 7 (P50613 whole entry): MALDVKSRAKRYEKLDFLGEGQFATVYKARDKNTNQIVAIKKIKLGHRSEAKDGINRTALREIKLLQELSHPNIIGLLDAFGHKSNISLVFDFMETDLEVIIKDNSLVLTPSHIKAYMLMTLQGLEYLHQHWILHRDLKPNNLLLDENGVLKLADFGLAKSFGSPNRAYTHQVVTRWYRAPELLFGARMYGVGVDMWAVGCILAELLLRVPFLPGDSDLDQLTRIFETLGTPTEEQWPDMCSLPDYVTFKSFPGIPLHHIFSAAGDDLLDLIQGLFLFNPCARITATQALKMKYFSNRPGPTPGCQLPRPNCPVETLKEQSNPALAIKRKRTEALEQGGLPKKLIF

Kd [1]	Kd [2]	Kd [3]	Kd [4]	Kd [5]	Kd [6]	Kd [7]	Kd [8]	SMILES
> 30 µM (inactive)	> 30 µM (inactive)	> 30 µM (inactive)	> 30 µM (inactive)	> 30 µM (inactive)	> 30 µM (inactive)	> 30 µM (inactive)	> 30 µM (inactive)	CCn1c(=O)c(-c2cc[nH]n2)cc2c(C)nc(N)nc21 [VOXTALISIB]
> 30 µM (inactive)	> 30 µM (inactive)	> 30 µM (inactive)	> 30 µM (inactive)	> 30 µM (inactive)	> 30 µM (inactive)	> 30 µM (inactive)	> 30 µM (inactive)	COc1ccc(-c2ccc3c(N4CCOC[C@@H]4C)nc(N4CCOC[C@@H]4C)nc3n2)cc1CO [AZD-8055]
> 30 µM (inactive)	> 30 µM (inactive)	> 30 µM (inactive)	> 30 µM (inactive)	> 30 µM (inactive)	> 30 µM (inactive)	> 30 µM (inactive)	> 30 µM (inactive)	CN(C)C(=O)c1cc2cnc(Nc3ccc(N4CCNCC4)cn3)nc2n1C1CCCC1 [RIBOCICLIB]
> 30 µM (inactive)	> 30 µM (inactive)	> 30 µM (inactive)	> 30 µM (inactive)	46.2 µM (active)	> 30 µM (inactive)	> 30 µM (inactive)	8.44 µM (active)	Cc1cc2c(F)c(Oc3ncnn4cc(OC[C@@H](C)OC(=O)[C@H](C)N)c(C)c34)ccc2[nH]1 [BRIVANIB ALANINATE]

SMILES	Kd [1]	Kd [2]	Kd [3]	Kd [4]	Kd [5]	Kd [6]	Kd [7]	Kd [8]
COC(=O)[C@@]1(O)C[C@H]2O[C@]1(C)n1c3ccccc3c3c4c(c5c6ccccc6n2c5c31)C(=O)NC4 [K-252A]	> 30 µM (inactive)	> 30 µM (inactive)	0.455 µM (active)	2.37 µM (active)	0.019 µM (active)	> 30 µM (inactive)	3.26 µM (active)	0.481 µM (active)
Cc1ccc(-n2nc(C(C)(C)C)cc2NC(=O)NCc2cc(F)ccc2Oc2ccc3c(cnn3CCO)c2)cc1 [PEXMETINIB]	> 30 µM (inactive)	> 30 µM (inactive)	> 30 µM (inactive)	> 30 µM (inactive)	0.222 µM (active)	> 30 µM (inactive)	> 30 µM (inactive)	> 30 µM (inactive)
